From US10583109B2, “Use of silver(I) complexes as anticancer agents” (University of Johannesburg, priority 2012, dated 2020)

Columns and labels:
[1] = system: A375 malignant melanoma cancer cells; assay: Celltitre-Glo Luminescent Cell Viability Assay (ATP) in A375 cells; type: cell-based, human; settings: 10 µM
Procedure: (§1) For purposes of the Celltitre-Glo™ Luminescent Cell Viability [Promega, USA] assay, a 1:1 mixture of cell sample to Celltitre-Glo™ substrate/buffer mix reagent, in duplicate, was added to 96-well black plate, shaken for 30 seconds at room temperature and then further incubated for 30 minutes. Whole luminescence was then measured with a Synergy HT Multi-Detection Microplate Reader. The CytoTox-ONE™ Homogenous Membrane Integrity [Promega, USA] assay is a rapid fluorescent assay that measures the level of lactate dehydrogenase leaked from damaged membranes, therefore, the amount of fluorescence measured is directly proportional to the amount of lysed/damaged cells. In triplicate, a 1:1 cell sample to CytoTox-ONE™ substrate/buffer mix reagent was added to a 96-well clear plate, shaken for 30 seconds followed by incubation for 10 minutes. A CytoTox-ONE™ stop solution was added to each sample followed by a further 30 second shake on an orbital shaker. […] The fluorescence was then measured with a Synergy HT Multi-Detection Microplate Reader at an excitation wavelength of 530 nm and emission wavelength of 590 nm. FIG. 25 depicts the percentage ATP and Lactate Dehydrogenase (LDH) measured in differentially treated A375 malignant melanoma cancer cells as determined by the Celltitre-Glo™ Luminescent Cell Viability Assay and CytoTox-ONE™ Membrane Integrity Assay respectively. […]

[2] = system: A375 malignant melanoma cancer cells; assay: AlamarBlue viability and proliferation assay of A375 malignant melanoma cancer cells; type: cell-based, human; settings: concentration range 1.0 μM-10.0 μM, viability as percentage of 1.0% DMSO vehicle control, quadratic equation
Procedure: A375 melanoma cancer cells originate from an immortal cell line from human malignant melanoma from skin (ATCC no CRL-1619).
A375 malignant melanoma cancer cells were cultured in Dulbecco's Modified Eagle's Medium (DMEM), 13.53 g/L with sodium bicarbonate (NaHCO3), 3.7 g/L supplemented with 10% fetal bovine serum (FBS), and 1% Penicillin/Streptomycin/Fungizone in 75 cm^3 sterile culture flasks. Cells were incubated at 37° C. with 5% CO2 in a humidified atmosphere and were subcultured twice a week. Cells were subcultured every 48 hours and used between Passages 3 and 7. […]
An AlamarBlue® (Serotec, UK) assay was done to investigate the proliferation capabilities of the differentially treated cells. AlamarBlue® dye (10%) was incubated with trypsinized cells over a 2-hour period before the fluorescence was measured with a Synergy HT Multi-Detection Microplate reader (BioTek, Winooski, Vt.) at wavelengths of 530 nm and (excitation) and 590 nm (emission). […]
Treatment volumes were 1.0 μL of 1-10 μM range of stock solutions. Fluorescence was measured with 530 nm excitation wavelength and 590 nm emission wavelength. FIG. 21 represents 3 biological repeats measured in triplicate. DMEM reference blanks were averaged and subtracted from all readings and cellular viability values were calculated as percentage of the 1.0% DMSO vehicle control (VC). […]

[3] = system: A375 malignant melanoma cancer cells; assay: CytoTox-ONE Membrane Integrity Assay (LDH) in A375 cells; type: cell-based, human; settings: 10 µM
Procedure: as §1

Caspase 3/7 = assay: Caspase-GLO 3/7 assay in A375 cells; type: cell-based, human; settings: 10 μM, 24 hour treatments
From the text: Caspase-GLO™ 3/7, 8 and 9 Assays are luminescent assays that measure Caspase activities, which have key effector functions in intrinsic and extrinsic apoptosis, therefore the amount of luminescence measured is proportional to the amount of Caspase activity present. The assays are based on the principle that after Caspase cleavage, a substrate containing the tetrapeptide DEVD sequence binds with Caspase and is released for a luminescent reaction with a thermostable luciferase enzyme. In duplicate, a 1:1 cell sample to Caspase-Glo™ substrate/buffer mix reagent was added into 96-well black plates, then shaken for 30 seconds at room temperature followed by a 1 hour incubation. Whole luminescence was then measured with a Synergy HT Multi-Detection Microplate Reader.
FIG. 26 depicts Caspase 3/7, 8 and 9 levels in differentially treated A375 malignant melanoma cancer cells as determined by relative luminescence recorded using Caspase-GLO™ assays. Caspase levels represented as a percentage of 1.0% DMSO Vehicle Control (VC) set at 100%. Cells treated with: CDDP=100 μM Cisplatin Positive Apoptotic Control and then 10 μM concentrations of complex (13) and complex (14). […]

[4] = system: SNO-oesophageal cancer cells; type: cell-based; settings: 100 μM, 24 hour treatment
Procedure: The SNO-oesophageal cancer cells were cultured in Dulbecco's modified Eagles medium (DMEM) containing 10% Foetal bovine serum (FBS), 0.8% Penicillin/Streptomycin/Fungizone and 0.2% Gentamycin. The SNO-oesophageal cancer cells were subcultured every 48 hours and incubated at 37° C. under a 5% CO2 humidified atmosphere. After 48 hours the cells were trypsinized and plated (6×10^5 cells) in 3.5 cm culture dishes and left to cultivate for 24 hours.
MCF-7 breast cancer cells, in terms of a first study, and SNO-oesophageal cancer cells, in terms of a second study, were treated with 10 μM silverthiocyanide complexes (1)-(5), as well as their ligands (Ligand-1 to Ligand-5) over a 24 hour incubation period. These complexes were dissolved in 0.1% Dimethyl sulfoxide (DMSO). The DMSO alone (vehicle control) decreased the viability with approximately 2.2%, signifying its minimal influence in cancer cell growth. For comparative purposes, 100 μM Cisplatin (CDDP) and 25% H2O2 was included which respectively serves as the apoptotic and necrotic controls. Cisplatin was prepared in 0.9% NaCl, whereas H2O2 was prepared in the supplemented DMEM media right before treatment. An untreated negative control (UT) was exposed to similar conditions as the treated cells and monitored during the experimental study.
An AlamarBlue® Viability® (Serotec, UK) assay was performed after a 24 hour treatment with complexes (1)-(5) and their ligands (Ligand-1 to Ligand-5, respectively) to evaluate the cellular effect the instant complexes (and their ligands) may have on the cancer cells. AlamarBlue® dye (10%) was incubated with trypsinized cells over a 2 hour period before the fluorescence was measured with a Synergy HT Multi-Detection Microplate reader (BioTek, Winooski, Vt.) at wavelengths of 530 nm and (excitation) and 590 nm (emission). This fluorescent based assay in particular involves the metabolic oxidation-reduction reaction of resazurin to a reduced resorufin product that is directly proportional to the amount of viable cells.
The percentage cellular viability of differentially treated SNO-oesophageal cells was determined using an AlamarBlue® assay, as depicted in FIG. 7. Different controls (grey) were included: untreated, 0.1% DMSO solvent and apoptotic control (100 μM Cisplatin) as well as the corresponding ligands (10 μM) of complexes (1)-(5). Cells were treated with silver(I) thiocyanate phosphine complexes (1)-(5) at a concentration of 10 μM. The percentages were calculated with respect to the control and error bars were constructed on the basis of Standard Error of the Mean (SEM) where n=9 except for the ligand of compound 4 (n=8). The P-values (*P<0.001 and **P<0.0001) were determined with the Student's T-test to evaluate the significant difference.
The cells were thereafter treated with complexes (6)-(9) at a concentration of 10 μM prepared in 0.1% DMSO. Treatment with either 25% H2O2 or 100 μM CDDP served as controls for necrosis and apoptosis respectively. The CDDP was prepared in 0.9% NaCl while the H2O2 was diluted with supplemented DMEM prior to treatment.
A suspension (100 μl) of the differentially treated cells was added in triplicate to a microtiter plate. In the dark, AlamarBlue® dye (10 μl) was added to each well containing a sample, followed by a 2 hour incubation in a 5% CO2 incubator at 37° C. The fluorescence was read on a Synergy HT Multi-Detection Microplate reader at a wavelength of 530 nm and (excitation) and 590 nm (emission). In terms of this study, the apoptotic control CDDP (100 μM) was included. Error bars represent the standard error of the mean (SEM) where n=9. The Student's T-test was used to determine the significant difference of the treatments with respect to DMSO (P*<0.05 and P**<0.001). The silver(I) nitrate phosphine complexes under evaluation decreased the cancer cell viability to a large extent compared to DMSO except complex (9).
SNO-oesophageal cancer cells were a gift from the University of Pretoria, RSA. […]

Caspase-3/7 = assay: Caspase-Glo 3/7 assay in SNO-oesophageal cancer cells; type: cell-based; settings: 100 μM, 24 hours treatment
Procedure: The Caspase-Glo®3/7 assay was used to confirm that the structural changes observed are due to apoptotic cell death. In this luminescent based assay, a 1:1 ratio of the Caspase-Glo® reagent was added to treated cells into a microtiter plate. The plate was gently agitated for 30 seconds and incubated for 30 minutes at room temperature. The whole luminescent intensity was measured using a Synergy HT Multi-Detection Microplate reader, where the intensity of the luminescence is proportional to the Caspase-3/7 concentration.
The error bars where constructed based on the standard error of the mean (SEM) where n=6. The significant difference were calculated with respect to the vehicle control (P<**0.001). A relative increase in expression was observed throughout.

`[Br][Ag]([PH](c1ccccc1)(c1ccccc1)c1ccccc1)([PH](c1ccccc1)(c1ccccc1)c1ccccc1)[PH](c1ccccc1)(c1ccccc1)c1ccccc1` [complex (13), AgBr(PPh3)3] was tested. Which “ATP levels (cellular viability)” value [1] did it give?
Its value is “less than 20%”.

What about the IC50 [2] of the same compound?
Its IC50 is 5.16 µM.

And the “LDH levels compared to the VC” value [3]?
Its value is “significant increase”.

And the “Caspase 3/7 levels compared to the VC” value (Caspase 3/7)?
Its value is “increased”.

What does the source list for `N.N.[Cl][Pt][Cl]` [Cisplatin, reference compound]?
cells killed [4]: ~74%; Caspase induction (Caspase-3/7): 2 fold increase

Which results are given for `O=[N+]([O-])[O-].[Ag+].c1ccc(P(c2ccccc2)c2ccccc2)cc1.c1ccc(P(c2ccccc2)c2ccccc2)cc1.c1ccc(P(c2ccccc2)c2ccccc2)cc1` [complex (14), AgNO3(PPh3)3]?
IC50 [2]: 6.77 µM; LDH levels compared to the VC [3]: significant increase; Caspase 3/7 levels compared to the VC (Caspase 3/7): increased
